Test results from patent US12187684B2, “Benzimidazole derivatives as modulators of retinoid-related orphan receptor gamma (RORγ) and pharmaceutical use thereof” (Jiangsu Hengrui Medicine Co., Ltd., priority 2018, dated 2025).

What was measured:
RORγ LBD-GST tagged = target: T1, RORγ LBD-GST tagged (Homo sapiens, UniProt P51449); assay: LanthaScreen TR-FRET RORγ coactivator assay; type: biochemical; conditions: Fluorescein-D22 coactivator peptide, 1 hour room temperature
T1 construct: RORγ LBD-GST tagged (Cat No. RORC-114H, Creative Biomart); purchased Creative Biomart RORC-114H
T1 sequence (P51449 269-508 limits assumed): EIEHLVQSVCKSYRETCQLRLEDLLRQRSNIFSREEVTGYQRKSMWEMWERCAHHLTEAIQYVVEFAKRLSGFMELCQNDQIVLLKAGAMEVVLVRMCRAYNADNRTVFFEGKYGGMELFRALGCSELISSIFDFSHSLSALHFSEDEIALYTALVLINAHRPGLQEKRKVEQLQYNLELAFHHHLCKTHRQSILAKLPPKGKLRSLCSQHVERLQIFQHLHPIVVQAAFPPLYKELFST
Procedure, shortened: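 GST-tagged RORγ LBD (25 ng/reaction) was incubated in coregulator buffer D with 5 mM DTT and compound (top 3 μM, 7-fold steps, 7 doses), then with a mix containing 0.6 μM fluorescein-D22 peptide and 8 nM Tb anti-GST antibody. After 1 h at room temperature in the dark, 520/495 nm TR-FRET was read. IC50 came from log concentration versus percent inhibition.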

[1] = test system: IL-17 production, human PBMC cells; assay: IL-17 production assay using human PBMC; type: cell-based; conditions: human PBMC stimulated by cytostim for 3 days, IL-17 ELISA of supernatant
Description: Test Example 2. IL-17 Production Assay Using Human PBMC
• 1. Human PBMC cells (Cat No. 70025.1, Zenbio) • 2. Lymphocyte medium (Cat No. LYMPH-1, Zenbio) • 3. TexMACS (Cat No. 130-097-196, Miltenyi) • 4. Cytostim-human (Cat No. 1130-092-173, Miltenyi) • 5. Human IL-17 ELISA (Cat No. D1700, R&D systems) • 6. Tecan Infinite M1000 plate reader (Tecan)
Experimental Procedure for IL-17 Production Assay
Cryopreserved peripheral blood human mononuclear cells (PBMCs) were rapidly thawed in warmed Lymphocyte media, and centrifuged cell suspension at 1000 rpm for 10 minutes. The supernatant was removed, and the cell pellets were gently resuspended in TexMACS media.
Human PBMC cells in TexMACS media were plated at 1×10^5 each well in triplicate. The test compounds at various concentrations or vehicle control (<0.5% DMSO) were added into cell culture. The cells were stimulated by cytostim (10 μL/mL) for 3 days in a humidified, 5% CO2 incubator at 37° C.
After incubation, the cell culture supernatant was harvested, and then removed particulates by centrifugation. Human IL-17 in the supernatant was measured using human IL-17 ELISA kit according to the manufacturer's protocol. IC50 values were determined using GraphPad Prism by plotting the compounds concentration versus percent inhibition.

| Compound | IC50 (RORγ LBD-GST tagged) | IC50 ([1]; Homo sapiens, PBMC, 72 h) | IC50 [1] |
| --- | --- | --- | --- |
| CCS(=O)(=O)c1ccc(Cc2nc3c(Cl)c(N4CCC(F)(F)CC4)c(Cl)cc3[nH]2)cc1 [Example 125, 4,6-dichloro-5-(4,4-difluoropiperidin-1-yl)-2-(4-(ethylsulfonyl)benzyl)-1H-benzo[d]imidazole] | 0.059 µM | 0.047 µM |  |
| CCS(=O)(=O)c1ccc(C(CO)c2nc3c(Cl)c(-c4ccccc4OCC(F)(F)F)c(Cl)cc3[nH]2)cc1 (centres unmarked) [Example 32, 2-(4,6-dichloro-5-(2-(2,2,2-trifluoroethoxy)phenyl)-1H-benzo[d]imidazol-2-yl)-2-(4-(ethylsulfonyl)phenyl)ethanol] | 0.052 µM | 0.007 µM |  |
| CCS(=O)(=O)c1ccc(C(O)c2nc3c(Cl)c(-c4ccccc4CCC(F)(F)F)c(Cl)cc3[nH]2)cc1 (centres unmarked) [Example 35, (4,6-dichloro-5-(2-(3,3,3-trifluoropropyl)phenyl)-1H-benzo[d]imidazol-2-yl)(4-(ethylsulfonyl)phenyl)methanol] | 0.061 µM | 0.008 µM |  |
| CCS(=O)(=O)c1ccc(C(CC(N)=O)c2nc3c(Cl)c(N4CCC(F)(F)CC4)c(Cl)cc3[nH]2)cc1 (single isomer, unassigned) [the shorter retention time of 146 and 147] [3-(4,6-dichloro-5-(4,4-difluoropiperidin-1-yl)-1H-benzo[d]imidazol-2-yl)-3-(4-(ethylsulfonyl)phenyl)propanamide] |  |  | 0.315 µM |
| CC(C)Oc1ccccc1-c1cc2nc(C(CO)c3ccc(S(=O)(=O)CC4CC4)cc3)[nH]c2cc1Cl (centres unmarked) [Example 124, 2-(6-chloro-5-(2-isopropoxyphenyl)-1H-benzo[d]imidazol-2-yl)-2-(4-((cyclopropylmethyl)sulfonyl)phenyl)ethanol] | 0.205 µM | 0.032 µM |  |
| O=S(=O)(CC1CC1)c1ccc(C(CO)c2nc3c(Cl)c(-c4ccccc4OC(F)(F)F)c(Cl)cc3[nH]2)c(F)c1 (centres unmarked) [Example 81, 2-(4-((cyclopropylmethyl)sulfonyl)-2-fluorophenyl)-2-(4,6-dichloro-5-(2-(trifluoromethoxy)phenyl)-1H-benzo[d]imidazol-2-yl)ethanol] | 0.035 µM | 0.003 µM |  |
| O=S(=O)(CC1CC1)c1ccc(C(CCO)c2nc3cc(-c4ccccc4OC(F)F)c(Cl)cc3[nH]2)cc1 (single isomer, unassigned) [the shorter retention time of 155 and 156] [3-(6-chloro-5-(2-(difluoromethoxy)phenyl)-1H-benzo[d]imidazol-2-yl)-3-(4-((cyclopropylmethyl)sulfonyl)phenyl)propan-1-ol] |  |  | 0.135 µM |
| CCS(=O)(=O)c1ccc(C(O)c2nc3c(Cl)c(-c4ccccc4OCCOC)c(Cl)cc3[nH]2)cc1 (centres unmarked) [Example 21, (4,6-dichloro-5-(2-(2-methoxyethoxy)phenyl)-1H-benzo[d]imidazol-2-yl)(4-(ethylsulfonyl)phenyl)methanol] | 0.083 µM | 0.453 µM |  |
| NC(=O)CC(c1ccc(S(=O)(=O)CC2CC2)cc1)c1nc2cc(Cl)c(-c3ccccc3OC(F)F)c(Cl)c2[nH]1 (centres unmarked) [Example 158, 3-(4-((cyclopropylmethyl)sulfonyl)phenyl)-3-(5,7-dichloro-6-(2-(difluoromethoxy)phenyl)-1H-benzo[d]imidazol-2-yl)propanamide] | 0.005 µM | 0.187 µM |  |
| CCS(=O)(=O)c1ccc(C(CO)c2nc3c(Cl)c(-c4ccccc4OC(F)F)c(Cl)cc3[nH]2)c(F)c1 (centres unmarked) [Example 84, 2-(4,6-dichloro-5-(2-(difluoromethoxy)phenyl)-1H-benzo[d]imidazol-2-yl)-2-(4-(ethylsulfonyl)-2-fluorophenyl)ethanol] | 0.019 µM | 0.013 µM |  |
| CCS(=O)(=O)c1ccc(C(CCO)c2nc3c(Cl)c(N4CCC(F)(F)CC4)c(Cl)cc3[nH]2)cc1 (single isomer, unassigned) [the shorter retention time of 139 and 140] [3-(4,6-dichloro-5-(4,4-difluoropiperidin-1-yl)-1H-benzo[d]imidazol-2-yl)-3-(4-(ethylsulfonyl)phenyl)propan-1-ol] |  |  | 0.214 µM |
| CC(C)Oc1ccccc1-c1cc2nc(C(CCO)c3ccc(S(=O)(=O)CC4CC4)cc3)[nH]c2cc1Cl (single isomer, unassigned) [the shorter retention time of 150 and 151] [3-(6-chloro-5-(2-isopropoxyphenyl)-1H-benzo[d]imidazol-2-yl)-3-(4-((cyclopropylmethyl)sulfonyl)phenyl)propan-1-ol] |  |  | 0.718 µM |
| NC(=O)CC(c1ccc(S(=O)(=O)CC2CC2)cc1)c1nc2cc(Cl)c(N3CCC(F)(F)CC3)c(Cl)c2[nH]1 (single isomer, unassigned) [the shorter retention time of 162 and 163] [3-(4-((cyclopropylmethyl)sulfonyl)phenyl)-3-(5,7-dichloro-6-(4,4-difluoropiperidin-1-yl)-1H-benzo[d]imidazol-2-yl)propanamide] |  |  | 0.069 µM |
| NC(=O)CC(c1ccc(S(=O)(=O)CC2CC2)cc1)c1nc2cc(-c3ccccc3OC(F)F)c(Cl)cc2[nH]1 (single isomer, unassigned) [the shorter retention time of 152 and 153] [3-(6-chloro-5-(2-(difluoromethoxy)phenyl)-1H-benzo[d]imidazol-2-yl)-3-(4-((cyclopropylmethyl)sulfonyl)phenyl)propanamide] |  |  | 0.86 µM |
| CC(C)Oc1ccccc1-c1cc2nc(C(CC(N)=O)c3ccc(S(=O)(=O)CC4CC4)cc3)[nH]c2cc1Cl (single isomer, unassigned) [the shorter retention time of 148 and 149] [3-(6-chloro-5-(2-isopropoxyphenyl)-1H-benzo[d]imidazol-2-yl)-3-(4-((cyclopropylmethyl)sulfonyl)phenyl)propanamide] |  |  | 0.555 µM |
| O=S(=O)(CCF)c1ccc(Cc2nc3c(Cl)c(-c4ccccc4C(F)(F)F)c(Cl)cc3[nH]2)cc1 [Example 63, 4,6-dichloro-2-(4-((2-fluoroethyl)sulfonyl)benzyl)-5-(2-(trifluoromethyl)phenyl)-1H-benzo[d]imidazole] | 0.592 µM |  |  |
| O=S(=O)(CC1CC1)c1ccc(Cc2nc3c(Cl)c(-c4ccccc4OC(F)F)c(Cl)cc3[nH]2)c(F)c1 [Example 98, 4,6-dichloro-2-(4-((cyclopropylmethyl)sulfonyl)-2-fluorobenzyl)-5-(2-(difluoromethoxy)phenyl)-1H-benzo[d]imidazole] | 0.007 µM |  |  |
| CCCS(=O)(=O)c1ccc(Cc2nc3c(Cl)c(-c4ccccc4OC(F)(F)F)c(Cl)cc3[nH]2)cc1 [Example 50, 4,6-dichloro-2-(4-(propylsulfonyl)benzyl)-5-(2-(trifluoromethoxy)phenyl)-1H-benzo[d]imidazole] | 0.284 µM |  |  |
| CC(C)S(=O)(=O)c1ccc(C(CO)c2nc3c(Cl)c(-c4ccccc4C(F)(F)F)c(Cl)cc3[nH]2)cc1 (centres unmarked) [Example 107] | 0.055 µM |  |  |
| CCCS(=O)(=O)c1ccc(C(O)c2nc3c(Cl)c(-c4ccccc4OC(F)(F)F)c(Cl)cc3[nH]2)cc1 (centres unmarked) [Example 52, (4,6-dichloro-5-(2-(trifluoromethoxy)phenyl)-1H-benzo[d]imidazol-2-yl)(4-(propylsulfonyl)phenyl)methanol] | 0.135 µM |  |  |
| O=S(=O)(CC1CC1)c1ccc(Cc2nc3c(Cl)c(-c4ccccc4OC(F)(F)F)c(Cl)cc3[nH]2)c(Cl)c1 [Example 90, 4,6-dichloro-2-(2-chloro-4-((cyclopropylmethyl)sulfonyl)benzyl)-5-(2-(trifluoromethoxy)phenyl)-1H-benzo[d]imidazole] | 0.004 µM |  |  |
